Results as given in patent US8003602B2 (priority 2006, dated 2011).
≈ marks a conversion by molar mass, not a printed value.

What was measured:
E. faecium ATCC 51559 = type: cell-based, Enterococcus faecium
Text: (§1) The in-vitro potency was established by minimum inhibitory concentration (MIC) determinations of the compound PM181104 against bacterial strains, by using the Macro-broth dilution method as per National Committee for Clinical Laboratory Standards (2000) guidelines [Journal of Anti-microbial Chemotherapy, 2002, 50, 125-128 (Cross Reference 8: Methods for Dilution Antimicrobial Susceptibility Tests for Bacteria that Grow Aerobically-Fifth Edition: Approved Standard M7-A5. NCCLS, Wayne, Pa., USA)]. Unless stated otherwise, Mueller-Hinton broth was used as nutrient medium for the assay. Linezolid (manufactured by Glenmark Pharma Ltd; Batch no: K2005028) was used as known standard in all in-vitro experiments. For preparation of the stock solution the compound PM181104 was dissolved in chloroform (5% of the total required volume) and diluted using methanol (95% of the total required volume).

E. faecium (R-2) = type: cell-based, Enterococcus faecium; conditions: E. faecium R-2 (VRE)
Text: as §1

[1] = tested on: S. epidermidis 6493II(2)W; experiment: MIC, Macro-broth dilution method; type: cell-based, Staphylococcus epidermidis
Text: as §1

S. epidermidis 823 = experiment: MIC, Macro-broth dilution method; type: cell-based, Staphylococcus epidermidis
Text: as §1

S. epidermidis 6098 = experiment: MIC, Macro-broth dilution method; type: cell-based, Staphylococcus epidermidis
Text: as §1

S. epidermidis 5744IW = experiment: MIC, Macro-broth dilution method; type: cell-based, Staphylococcus epidermidis
Text: as §1

S. epidermidis Pat 01 IV = experiment: MIC, Macro-broth dilution method; type: cell-based, Staphylococcus epidermidis
Text: as §1

S. epidermidis 10221II W = experiment: MIC, Macro-broth dilution method; type: cell-based, Staphylococcus epidermidis
Text: as §1

S. epidermidis 32965 = experiment: MIC, Macro-broth dilution method; type: cell-based, Staphylococcus epidermidis
Text: as §1

S. aureus E-710 [2] = experiment: Lung infection model; type: in vivo, Balb/C mice; conditions: 5 mg/kg intravenously at 24 and 36 hours post infection, lungs collected at 48 hours
Text: (§2) The in-vivo potency was established by protection dose (PD) determinations of the compound PM181104 for its antibiotic activity in three animal models using either male or female Balb/C mice.
(§3) The models used were the general purpose efficacy testing models and organ/tissue specific efficacy testing models. The general purpose efficacy testing models used were systemic infection model (septicemia), and localized infection model (neutropenic thigh model). The Organ/Tissue specific infection models used for efficacy testing were kidney, lung infection, and skin abscess model.
Balb/C mice were rendered neutropenic by intraperitoneally administering 200 mg/kg cyclophosphamide four days and two days prior to infection. On the day of infection, the mice were anesthetized and infected with S. aureus E-710 log-phase culture suspension having bacterial density of approximately 10^6 to 10^7 cfu/ml. 24 and 36 hours post infection the first and second respective dose of drug was administered intravenously. 48 hours post infection, the animals were humanely euthanized and their lungs were aseptically collected to determine the viable count of bacteria. In this model, PM181104 was tested at 5 mg/kg dose prepared in cremophor-ethanol formulation as described in example 14. Two standard antibiotics viz. Linezolid (80 mg/kg single dose at 24 hours post infection) and Vancomycin (110 mg/kg, two doses at 24 and 48 hours post infection) were used as positive controls.

B. subtilis = experiment: MIC, Macro-broth dilution method; type: cell-based, Bacillus subtilis
Text: as §1

B. subtilis ATCC 6633 = experiment: MIC, Macro-broth dilution method; type: cell-based, Bacillus subtilis
Text: as §1

S. aureus KEM-MRSA12 = experiment: MIC, Macro-broth dilution method; type: cell-based, Staphylococcus aureus
Text: as §1

S. aureus KEM-MRSA11 = experiment: MIC, Macro-broth dilution method; type: cell-based, Staphylococcus aureus
Text: as §1

S. aureus (789) = experiment: MIC, Macro-broth dilution method; type: cell-based, Staphylococcus aureus
Text: as §1

S. aureus KEM-MRSA18 = experiment: MIC, Macro-broth dilution method; type: cell-based, Staphylococcus aureus
Text: as §1

S. aureus C1 3184 = experiment: MIC, Macro-broth dilution method; type: cell-based, Staphylococcus aureus
Text: as §1

S. aureus wien13 = experiment: MIC, Macro-broth dilution method; type: cell-based, Staphylococcus aureus
Text: as §1

S. aureus wien8 = experiment: MIC, Macro-broth dilution method; type: cell-based, Staphylococcus aureus
Text: as §1

S. aureus KEM-MRSA8 = experiment: MIC, Macro-broth dilution method; type: cell-based, Staphylococcus aureus
Text: as §1

S. aureus (3066) = experiment: MIC, Macro-broth dilution method; type: cell-based, Staphylococcus aureus
Text: as §1

S. aureus Bom-MRSA2 = experiment: MIC, Macro-broth dilution method; type: cell-based, Staphylococcus aureus
Text: as §1

S. aureus E-710 [3] = experiment: Neutropenic thigh model; type: in vivo, Balb/C mice; conditions: 5 mg/kg intravenously two hours post infection, 6 hour time point
Text: as §2, §3
Each experimental group consisted of six animals. PM181104 was prepared in cremophor-ethanol formulation as described in example 14.

B. firmus = experiment: MIC, Macro-broth dilution method; type: cell-based, Bacillus firmus
Text: as §1

[4] = tested on: Enterococcus faecium ATCC 47077; experiment: Kidney infection model; type: in vivo, Balb/C mice; conditions: 5 mg/kg intravenously at 4, 24 and 48 hours post-infection, kidneys harvested at 72 hours
Text: as §2, §3
0.2 ml of 2% λ Carrageenan was administered intravenously to Balb/C mice 7 days prior to infection. Overnight grown log phase culture of Enterococcus faecium ATCC 47077 adjusted to approximately 10^9 cfu/ml, was injected intravenously to the mice at a volume of 0.2 ml. PM181104 solution, prepared in cremophor-ethanol formulation as described in example 14, was administered intravenously to the mice at 4 hours, 24 hours and 48 hours post-infection. At 72 hours post infection, the animals were sacrificed and kidneys were harvested to determine the bacterial load. […] Linezolid (manufactured by Glenmark Pharma Ltd; Batch no: K2005028) at 25 mg/kg and Vancomycin hydrochloride (manufactured by HiMedia; Catalogue no: RM217-500 mg; Lot no: 06-0350) at 150 mg/kg dose.

[5] = solvents in which soluble
Text: The physico-chemical and spectral properties of the compound PM181104

C=C(NC(=O)C(=C)NC(=O)C1CCCN1C(=O)c1nc(-c2ccc(-c3nc(C(=O)NC(=C)C(=O)NC(C)C(N)=O)cs3)c(-c3csc(C4Cc5nc(cs5)C(=O)NC(Cc5ccccc5)C5=NC(CS5)C(=O)NC(Cc5ccc(O)cc5)C(=O)N5CCCC5c5nc(cs5)C(=O)N4)n3)n2)oc1C)C(N)=O (stereo not drawn) [PM181104]
MIC (E. faecium ATCC 51559): 0.00781 µg/mL (≈ 0.00515 µM)
MIC (E. faecium (R-2)): 0.00781 µg/mL (≈ 0.00515 µM)
MIC [1]: 0.0625 µg/mL (≈ 0.0412 µM)
MIC (S. epidermidis 823): 0.03125 µg/mL (≈ 0.0206 µM)
MIC (S. epidermidis 6098): 0.0625 µg/mL (≈ 0.0412 µM)
MIC (S. epidermidis 5744IW): 0.01563 µg/mL (≈ 0.0103 µM)
MIC (S. epidermidis Pat 01 IV): 0.0625 µg/mL (≈ 0.0412 µM)
MIC (S. epidermidis 10221II W): 0.00781 µg/mL (≈ 0.00515 µM)
MIC (S. epidermidis 32965): 0.03125 µg/mL (≈ 0.0206 µM)
activity profile in lung infection (S. aureus E-710 [2]): bacteriostatic activity
difference in the bacterial count in the lungs as compared to untreated control animals (S. aureus E-710 [2]): approximately 2 log
MIC (B. subtilis): 0.01563 µg/mL (≈ 0.0103 µM)
MIC (B. subtilis ATCC 6633): 0.00781 µg/mL (≈ 0.00515 µM)
MIC (S. aureus KEM-MRSA12): 0.01563 µg/mL (≈ 0.0103 µM)
MIC (S. aureus KEM-MRSA11): 0.0625 µg/mL (≈ 0.0412 µM)
MIC (S. aureus (789)): 0.00781 µg/mL (≈ 0.00515 µM)
MIC (S. aureus KEM-MRSA18): 0.01563 µg/mL (≈ 0.0103 µM)
MIC (S. aureus C1 3184): 0.0625 µg/mL (≈ 0.0412 µM)
MIC (S. aureus wien13): 0.0625 µg/mL (≈ 0.0412 µM)
MIC (S. aureus wien8): 0.01563 µg/mL (≈ 0.0103 µM)
MIC (S. aureus KEM-MRSA8): 0.01563 µg/mL (≈ 0.0103 µM)
MIC (S. aureus (3066)): 0.03125 µg/mL (≈ 0.0206 µM)
MIC (S. aureus Bom-MRSA2): 0.0625 µg/mL (≈ 0.0412 µM)
decrease in viable counts in thigh tissue (S. aureus E-710 [3]): approximately 1 log
MIC (B. firmus): 0.01563 µg/mL (≈ 0.0103 µM)
decrease in bacterial count in kidneys [4]: approximately 1 log
Solubility [5]: Methanol, DMSO
